Measured values taken from patent publication US20130072424A1, “COMPOUNDS AND METHODS FOR PEPTIDE RIBONUCLEIC ACID CONDENSATE PARTICLES FOR RNA THERAPEUTICS” (MARINA BIOTECH, INC., priority 2005, published 2013).
Ends that are not written are not given here. Peptide text beside a SMILES is read from it. * marks the point of attachment. 5FAM = O=C1OC2(c3ccc(O)cc3Oc3cc(O)ccc32)c2ccc(C(=O)*)cc21

What was measured:
in vitro = settings: mouse, mouse tail fibroblast (MTF) cells
Protocol: Fluorescence activated cell sorting (FACS) analysis were performed using Beckman Coulter FC500 cell analyzer (Fullerton, Calif.). The instrument was adjusted according to the fluorescence probes used (FAM or Cy5 for siRNA and FITC and PE for CD14). Propidium iodide (Fluka, St Louis) and AnnexinV (R&D systems, Minneapolis) were used as indicators for cell viability and cytotoxicity. A brief step-by-step protocol is detailed below. • (a) After exposure to the complex of siRNA/peptide, cells were incubated for at least 3 hours. • (b) Wash cells with 200 μl PBS. • (c) Detach cells with 15 μl TE, incubate at 370 C. • (d) Re-suspend cells in five wells with 30 μl FACS solution (PBS with 0.5% BSA, and 0.1% sodium Azide). • (e) Combine all five wells into a tube. • (f) Add PI (Propidium iodide) 5 μl into each tube. • (g) Analyze the cells with fluorescence activated cell sorting (FCAS) according to manufacturer's instructions.
For siRNA uptake analysis, cells were washed with PBS, treated with trypsin (attached cells only), and then analyzed by flow cytometry. […] In order to differentiate the cellular uptake from the membrane insertion of fluorescence labeled siRNA, trypan blue was used to quench the fluorescence on the cell membrane surface.
FITC-tagged peptides were diluted in Opti-MEM® media (Invitrogen) for about 5 minutes at room temperature and then added to cells. Cells were transfected for 3 hours at and washed with PBS, treated with trypsin, and then analyzed by flow cytometry. Cell viability was determined as above. Cellular uptake was distinguished from the membrane insertion using trypan blue to quench any fluorescence on the cell membrane surface.

[1] = test system: mouse tail fibroblast (MTF) cells; test: siRNA cell-uptake assay and MFI (Cy5-conjugated siRNA, flow cytometry), Examples 14-16; type: cell-based
Protocol: (§1) As described above, the cell-uptake assay determines the number of cells that receive Cy5-conjugated siRNA when complexed with a peptide. siRNA cell-uptake was assessed by flow cytometry (refer to Example 2 for details). Uptake was expressed as a percentage calculated by dividing the number of cells containing Cy5-conjugated siRNA by the total number of transfected and untransfected cells in culture. Mean Fluorescence Intensity (MFI) was measured by flow cytometry and determined the amount of Cy5-conjugated siRNA found within cells. The MFI value directly correlates with the amount of Cy5-conjugated siRNA within the cell, thus, a higher MFI value indicates a greater number of Cy5-conjugated siRNA within the cells.
The siRNA cell-uptake assay and MFI measurements were performed as described previously in Examples 2 and 3. […]

hTNF-α mRNA = test: Knockdown of hTNF-α gene expression by siRNA/peptide complexes in LPS-stimulated human monocytes (branch DNA mRNA); type: cell-based; settings: human monocytes; for KD: knockdown of hTNF-α mRNA vs Qneg, siRNAs A19S21, 21/21, LC20 at 20 nM, molar ratio 1 to 5; for siRNA knockdown activity of TNF-α mRNA, in words: siRNAs A19S21, 21/21 and LC20
Protocol: Specifically, the ability of siRNA/peptide complexes to modulate expression of the human tumor necrosis factor-α (hTNF-α) gene was assessed. The significance of targeting the hTNF-α gene is that it is implicated in mediating the occurrence or progression of rheumatoid arthritis (RA) when over-expressed in human and other mammalian subjects.
Human monocytes were used as a model system to determine the effect of siRNA/peptide complexes on hTNF-α gene expression. Qneg represents a random siRNA sequence and functioned as the negative control. […] A19S21, 21/21 and LC20 are siRNAs that target hTNF-α mRNA.
Healthy human blood was purchased from Golden West Biologicals (CA), the peripheral blood mononuclear cells (PBMC) were purified from the blood using Ficoll-Pague plus (Amersham) gradient. Human monocytes were then purified from the PBMCs fraction using magnetic microbeads from Miltenyi Biotech. Isolated human monocytes were resuspended in IMDM supplemented with 4 mM glutamine, 10% FBS, 1× non-essential amino acid and 1× pen-strep, and stored at 4 C until use.
In a 96 well flat bottom plate, human monocytes were seeded at 100 K/well/100 μl in OptiMEM medium (Invitrogen). Exemplary polynucleotide delivery-enhancing polypeptides were mixed with 20 nM siRNA at a molar ratio of 1 to 5 in OptiMEM medium at room temperature for 5 minutes. At the end of incubation, FBS was added to the mixture (final 3%), and 50 μl of the mixture was added to the cells. The cells were incubated at 37° C. for 3 hours. After incubation, the cells were transferred to V-bottom plate and pelleted at 1500 rpm for 5 min. The cells were resuspended in growth medium (IMDM with glutamine, non-essential amino acid, and pen-strep). After an overnight incubation, the monocytes were stimulated by application of LPS (Sigma) at 1 ng/ml for 3 hours to increase expression of TNF-α expression levels. After induction by LPS, cells were collected as above for mRNA quantification, and supernatant was saved for protein quantification if desired.
For mRNA measurement, branch DNA technology from Genospectra (CA) was used according to manufacturer's specification. To quantitate mRNA level in the cells, both house keeping gene (cypB) and target gene (TNF-α) mRNA were measured, and the reading for TNF-α was normalized with cypB to obtain relative luminescence unit. […]

[2] = test system: primary mouse tail fibroblast (MTF) cells; test: Peptide cell-uptake assay (FITC-labeled peptide, flow cytometry); type: cell-based; settings: for Peptide FITC MFI: relative values
Protocol: The efficacy of the full-length and truncated forms of polypeptide PN73 to enter cells was tested in vitro by a cell-uptake assay with primary mouse tail fibroblast (MTF) cells. The number of cells in culture that receive the FITC-labeled peptide was measured by flow cytometry. The percentage peptide cell-uptake was expressed relative to the total number of cells present in the culture. In addition, the Mean Fluorescence Intensity (MFI) was used to evaluate the quantity of FITC-labeled peptide found within cells. MFI directly correlates with the amount of FITC-labeled peptide within the cell: higher relative MFI value correlates with a greater amount of intracellular FITC-labeled peptides. Peptides were evaluated at 0.63 μM, 2.5 μM and 10 μM concentrations; PN768 was tested at 2 μM, 10 μM and 50 μM. […]

[3] = test system: mouse tail fibroblast (MTF) cells; test: Polypeptide mediated siRNA delivery screen (Cy5-siRNA cell-uptake and MFI), Example 17; type: cell-based; settings: for MFI measurement relative to the PN643 positive control, in words / MFI measurement relative to the positive control: Cy5-conjugated siRNA; for percent siRNA cell-uptake activity (Table 24): Cy5 conjugated LC20 siRNA, concentration not given
Protocol: as §1, with “siRNA uptake by” for “As described above, the cell-uptake assay determines the number of”, “cells” for “cells that receive Cy5-conjugated siRNA when complexed with a peptide. siRNA cell-uptake”

[4] = PN73 mutant series, peptide 0.63 μM
[5] = PN73 mutant series, peptide 1.25 μM
[6] = PN73 mutant series, peptide 2.5 μM
[7] = PN73 mutant series, peptide 5 μM

Compound: CC(C)C[C@H](NC(=O)[C@@H](NC(=O)[C@H](CCCCN)NC(=O)[C@H](Cc1ccc(O)cc1)NC(=O)[C@@H](NC(=O)[C@H](Cc1ccc(O)cc1)NC(=O)[C@@H](NC(=O)[C@H](CO)NC(=O)[C@H](Cc1ccc(O)cc1)NC(=O)[C@H](CO)NC(=O)[C@H](Cc1ccccc1)NC(=O)[C@H](CCCCN)NC(=O)[C@H](CCCNC(=N)N)NC(=O)[C@H](CO)NC(=O)[C@H](CCCNC(=N)N)NC(=O)[C@H](CCCCN)NC(=O)[C@H](CCCNC(=N)N)NC(=O)[C@H](CCCCN)NC(=O)[C@H](CCCCN)NC(=O)CNC(=O)[C@H](CC(=O)O)NC(=O)[C@H](CCCCN)NC(=O)[C@H](CCCCN)NC(=O)[C@H](CCC(N)=O)NC(=O)[C@H](C)NC(=O)[C@H](CCCCN)NC(=O)[C@@H](NC(=O)[C@@H](NC(=O)[C@H](C)NC(=O)[C@H](CCCCN)NC(=O)[C@H](CCCCN)NC(=O)[C@H](CO)NC(=O)CNC(=O)[C@@H](N)CCCCN)C(C)C)[C@@H](C)O)C(C)C)C(C)C)C(C)C)C(=O)N[C@@H](CCCCN)C(=O)N[C@@H](CCC(N)=O)C(N)=O [PN646]
- viability at 0.63 µM (in vitro): 81%
- viability at 1.25 µM (in vitro): 85%
- viability at 2.5 µM (in vitro): 87%
- viability at 5 µM (in vitro): 92%
- % siRNA Cell-Uptake [1, 4]: 67%
- siRNA Cy5 MFI [1, 4]: 4
- % siRNA Cell-Uptake [1, 5]: 70%
- siRNA Cy5 MFI [1, 5]: 10
- % siRNA Cell-Uptake [1, 6]: 73%
- siRNA Cy5 MFI [1, 6]: 24
- % siRNA Cell-Uptake [1, 7]: 88%
- siRNA Cy5 MFI [1, 7]: 24

Compound: CC(C)C[C@H](NC(=O)[C@@H](NC(=O)[C@H](CCCCN)NC(=O)[C@H](Cc1ccc(O)cc1)NC(=O)[C@@H](NC(=O)[C@H](Cc1ccc(O)cc1)NC(=O)[C@@H](NC(=O)[C@H](CO)NC(=O)[C@H](Cc1ccc(O)cc1)NC(=O)[C@H](CO)NC(=O)[C@H](CCC(=O)O)NC(=O)[C@H](CCCCN)NC(=O)[C@@H](N)CCCNC(=N)N)C(C)C)C(C)C)C(C)C)C(=O)N[C@@H](CCCCN)C(=O)N[C@@H](CCC(N)=O)C(=O)NCC(=O)N[C@@H](CCCCNC(=O)c1ccc2c(c1)C(=O)OC21c2ccc(O)cc2Oc2cc(O)ccc21)C(=O)NCC(N)=O [PN708] (H-RKESYSVYVYKVLKQGK(5FAM)G-NH2)
- KD (hTNF-α mRNA): + (the peptide/siRNA complex had knockdown activity of 80% of the Qneg negative control siRNA (20% reduction in mRNA levels compared to the Qneg negative control))
- siRNA knockdown activity of TNF-α mRNA, in words (hTNF-α mRNA): no observable knockdown activity
- % Peptide Cell-Uptake ([2]; peptide 10 μM): 97 (10 μM) %
- Peptide FITC MFI ([2]; peptide 10 μM): 10 (10 μM)
- viability at 3 h (in vitro): > 90%
- amount of Cy5-siRNA delivered into cells compared to the full-length PN73 (PN690) peptide [1]: about doubled
- maximum siRNA cell-uptake activity ([1]; Cy5-LC20 siRNA, PN708 at 80 μM): 95%
- % siRNA Cell-Uptake ([1]; peptide 10 μM): 42 (10 μM) %
- siRNA Cy5 MFI ([1]; peptide 10 μM, relative values): 34 (10 μM)

Compound: GTAMRILGGVIPRKKRRQRRRPPQ-amide (GTAMRILGGVIPRKKRRQRRRPPQ-NH2) [PN734, m-Calpain + TAT]
- MFI measurement relative to the PN643 positive control, in words [3]: significantly lower

Compound: KETWWETWWTEWSQPKKKRKV-amide (KETWWETWWTEWSQPKKKRKV-NH2) [PN682, Pep-1]
- MFI measurement relative to the PN643 positive control, in words [3]: comparable

Compound: KGSFKAVTKAQKKDGKKRKRSFKFSYSVYVYKVLKQ-NH2 [PN647]
- viability at 0.63 µM (in vitro): 85%
- viability at 1.25 µM (in vitro): 83%
- viability at 2.5 µM (in vitro): 88%
- viability at 5 µM (in vitro): 87%
- % siRNA Cell-Uptake [1, 4]: 71%
- siRNA Cy5 MFI [1, 4]: 13
- % siRNA Cell-Uptake [1, 5]: 74%
- siRNA Cy5 MFI [1, 5]: 34
- % siRNA Cell-Uptake [1, 6]: 83%
- siRNA Cy5 MFI [1, 6]: 39
- % siRNA Cell-Uptake [1, 7]: 85%
- siRNA Cy5 MFI [1, 7]: 41

Compound: KGSFKAVTKAQKKFGKKRKRSRKSFSVYVYKVLKQ-NH2 [PN729]
- viability at 0.63 µM (in vitro): 82%
- viability at 1.25 µM (in vitro): 91%
- viability at 2.5 µM (in vitro): 92%
- viability at 5 µM (in vitro): 90%
- % siRNA Cell-Uptake [1, 4]: 61%
- siRNA Cy5 MFI [1, 4]: 4
- % siRNA Cell-Uptake [1, 5]: 69%
- siRNA Cy5 MFI [1, 5]: 10
- % siRNA Cell-Uptake [1, 6]: 79%
- siRNA Cy5 MFI [1, 6]: 16
- % siRNA Cell-Uptake [1, 7]: 86%
- siRNA Cy5 MFI [1, 7]: 30

Compound: KRSRKESYSVYVYKVLKQ-GK[EPSILON-5CFG-amide (KRSRKESYSVYVYKVLKQG-{K(5CF)-Gly-NH2}) [PN654]
- siRNA knockdown activity of TNF-α mRNA, in words (hTNF-α mRNA): moderate knockdown activity for both the A19S21 and 21/21 siRNAs but not for the LC20 siRNA
- % Peptide Cell-Uptake ([2]; peptide 10 μM): 95 (10 μM) %
- Peptide FITC MFI ([2]; peptide 10 μM): 10 (10 μM)
- % siRNA Cell-Uptake ([1]; peptide 10 μM): 27 (10 μM) %
- siRNA Cy5 MFI ([1]; peptide 10 μM, relative values): 14 (10 μM)

Compound: KVLKQ-GK[EPSILON-5CFG-amide [PN768]
- % Peptide Cell-Uptake ([2]; peptide 50 µM): 91 (50 µM) %
- Peptide FITC MFI ([2]; peptide 50 μM): 9 (50 μM)

Compound: LGLLLRHLRHHSNLLANIPRKKRRQRRRPP-amide (LGLLLRHLRHHSNLLANIPRKKRRQRRRPP-NH2) [PN759]
- MFI measurement relative to the positive control [3]: ~6 fold

Compound: RKKRRQRRRPPVAYISRGGVSTYYSDTVKGRFTRQKYNKRA-amide (RKKRRQRRRPPVAYISRGGVSTYYSDTVKGRFTRQKYNKRA-NH2) [PN760, TAT + Peptide P3a]
- MFI measurement relative to the positive control [3]: approximately 13 fold

Compound: RQIKIWFQNRRMKWKK-amide (RQIKIWFQNRRMKWKK-NH2) [PN694, Penetratin]
- MFI measurement relative to the PN643 positive control, in words [3]: significantly lower
- percent siRNA cell-uptake activity (Table 24) [3]: 54%

Compound: RQIRIWFQNRRMRWRR-amide (RQIRIWFQNRRMRWRR-NH2) [PN714, PenArg]
- MFI measurement relative to the PN643 positive control, in words [3]: significantly lower
- percent siRNA cell-uptake activity (Table 24) [3]: 43%

Compound: SYSVYVYKVLKQ-GK[EPSILON-5CFG-amide (SYSVYVYKVLKQG-{K(5CF)-Gly-NH2}) [PN653]
- KD (hTNF-α mRNA): −
- % Peptide Cell-Uptake ([2]; peptide 10 μM): 95 (10 μM) %
- Peptide FITC MFI ([2]; peptide 10 μM): 8 (10 μM)
- % siRNA Cell-Uptake ([1]; peptide 10 μM): 1.7 (10 μM) %
- siRNA Cy5 MFI ([1]; peptide 10 μM, relative values): 4 (10 μM)

Compound: VYVYKVLKQ-GK[EPSILON-5CFG-amide (VYVYKVLKQG-{K(5CF)-Gly-NH2}) [PN652]
- % Peptide Cell-Uptake ([2]; peptide 10 μM): 86 (10 μM) %
- Peptide FITC MFI ([2]; peptide 10 μM): 5 (10 μM)
- % siRNA Cell-Uptake ([1]; peptide 10 μM): 1.8 (10 μM) %
- siRNA Cy5 MFI ([1]; peptide 10 μM, relative values): 5 (10 μM)

Compound: YKVLKQ-GK[EPSILON-5CFG-amide [PN651]
- % Peptide Cell-Uptake ([2]; peptide 10 μM): 90 (10 μM) %
- Peptide FITC MFI ([2]; peptide 10 μM): 5 (10 μM)
- % siRNA Cell-Uptake ([1]; no peptide concentration printed): 0%
- siRNA Cy5 MFI ([1]; peptide .65 μM, relative values): 3 (.65 μM)
